Test: Rhodamine release from chemically cross-linked poly(dimethyl siloxane) microcapsules (fluorescence photomicrographs, confocal microscopy)
Type: physicochemical
Text: FIGS. 18(a)-(c). A series of photomicrographs (200× magnification) depicting a population of rhodamine B-containing chemically cross-linked elastomeric microcapsules one hour and one year after manufacturing. […] In Particular:
Elastomer-Permeable Therapeutic Agent Microencapsulation. Rhodamine dye was encapsulated within chemically cross-linked poly(dimethyl siloxane) microcapsules utilizing the hydrophilic agent encapsulation methods at low concentrations due to the hydrophilicity of the aqueous solution. However, rhodamine is hydrophobic and permeates vulcanized poly(dimethyl siloxane) in the same fashion as a hydrophobic therapeutic agent. The resultant population of microspheres was sieved and re-suspended in a dilute aqueous poly(vinyl alcohol) solution. Upon resuspension in the rhodamine-free aqueous solution, a series of fluorescence photomicrographs were obtained.
To further investigate the shell-permeability and partition coefficient of the rhodamine within chemically cross-linked elastomeric microcapsules samples of the population of microcapsules that was tested for release were imaged by confocal microscopy.

extended release of a model therapeutic (duration) (rhodamine in aqueous cores of cross-linked poly(dimethyl siloxane) microcapsules, in dilute aqueous poly(vinyl alcohol), unstirred at room temperature): greater than one year
burst effect (upon resuspension in rhodamine-free aqueous solution): No burst effect was observed
SMILES: CCN(CC)c1ccc2c(-c3ccccc3C(=O)O)c3ccc(=[N+](CC)CC)cc-3oc2c1 [Rhodamine dye, rhodamine B]

Source: patent publication US20080175918A1, “CHEMICALLY CROSS-LINKED ELASTOMERIC MICROCAPSULES” (priority 2005, published 2008)
